Here are results for three compounds from article PMC10418701, “Pharmacological Screening of Kv7.1 and Kv7.1/KCNE1 Activators as Potential Antiarrhythmic Drugs in the Zebrafish Heart” (International Journal of Molecular Sciences, 2023).

The structures appear in SMILES notation.

The target in test [1] is T1, zebrafish Kv7.1 (KCNQ1) (Danio rerio, UniProt B0R0K2).
T1 construct: gene kcnq1.1
T1 sequence (B0R0K2 1-655): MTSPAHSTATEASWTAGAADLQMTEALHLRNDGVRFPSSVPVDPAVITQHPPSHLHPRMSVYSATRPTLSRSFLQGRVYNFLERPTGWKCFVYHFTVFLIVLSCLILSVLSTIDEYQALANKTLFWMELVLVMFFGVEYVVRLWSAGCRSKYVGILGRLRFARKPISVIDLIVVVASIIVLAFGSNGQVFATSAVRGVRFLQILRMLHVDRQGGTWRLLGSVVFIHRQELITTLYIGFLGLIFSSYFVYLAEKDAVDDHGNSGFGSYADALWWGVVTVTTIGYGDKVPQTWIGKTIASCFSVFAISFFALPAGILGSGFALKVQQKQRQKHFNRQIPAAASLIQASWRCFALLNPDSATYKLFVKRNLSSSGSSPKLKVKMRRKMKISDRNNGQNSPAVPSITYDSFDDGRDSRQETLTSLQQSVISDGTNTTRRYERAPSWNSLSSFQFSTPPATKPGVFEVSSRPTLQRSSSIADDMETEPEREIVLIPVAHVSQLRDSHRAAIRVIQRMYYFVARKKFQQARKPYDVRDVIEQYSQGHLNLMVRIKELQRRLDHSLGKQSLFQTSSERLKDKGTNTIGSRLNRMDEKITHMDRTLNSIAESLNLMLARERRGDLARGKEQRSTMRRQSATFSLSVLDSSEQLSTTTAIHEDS
Nature of the test: cell-based. Type of test: cell-based.

Test [2] concerns the target T1, zebrafish Kv7.1 (KCNQ1). Kind of test: two-electrode voltage clamp, zebrafish Kv7.[…] expressed in Xenopus laevis oocytes. In kind it is cell-based.

As for `COc1ccc(-c2csc(NC(=O)[C@H]3CCCCN3S(=O)(=O)c3ccc(C)cc3)n2)cc1` [ML-277], the fold induction at 1 µM on zebrafish Kv7.1 (KCNQ1) [1] (read-out: two-electrode voltage clamp, zebrafish Kv7.1 expressed in Xenopus laevis oocytes) is more than 8. As for `CC/C=C\C/C=C\C/C=C\C/C=C\C/C=C\C/C=C\CCC(=O)NCC(=O)O` [DHA-Gly], the “two-electrode voltage clamp, zebrafish Kv7.1 expressed in Xenopus laevis oocytes” value at zebrafish Kv7.1 (KCNQ1) [1] was 12.2 mV left shift of V0.5 at 20 µM. `CCS(=O)(=O)N(C)[C@H]1c2cc(C#N)ccc2OC(C)(C)[C@@H]1O` (racemic) [chromanol 293B] yielded an inhibition at 10 µM on zebrafish Kv7.1 (KCNQ1) [2] of 76%.
